Data taken from ChEMBL document CHEMBL4888484, “Replenishing the malaria drug discovery pipeline: Screening and hit evaluation of the MMV Hit Generation Library 1 (HGL1) against asexual blood stage Plasmodium falciparum ,using a nano luciferase reporter read-out” (2022).

Legend:
[1] = Hit confirmation in dose-response curve in HepG2 cytotoxicity assay, at 72h; type: toxicity, cell-based; set-up: timepoint 72 hour; conditions: human, HepG2 cells
[2] = tested on: Plasmodium falciparum; experiment: Hit confirmation in dose-response curve in Dd2 pLDH assay, at 72h; type: functional, organism-based; set-up: timepoint 72 hour; conditions: Dd2, Erythrocyte
[3] = tested on: Plasmodium falciparum; experiment: Hit confirmation in dose-response curve in NF54 nanoGlo assay, at 72h; type: functional, organism-based, Erythrocyte; set-up: timepoint 72 hour; conditions: Plasmodium falciparum, NF54, Erythrocyte, 72 h
[4] = tested on: Plasmodium falciparum; experiment: Hit confirmation in dose-response curve in NF54 nanoGlo assay, at 12h; type: functional, organism-based, Erythrocyte; set-up: timepoint 12 hour; conditions: Plasmodium falciparum, NF54, Erythrocyte, 12 h
[5] = tested on: Plasmodium falciparum; experiment: Hit confirmation in dose-response curve in NF54 pLDH assay, at 72h; type: functional, organism-based; set-up: timepoint 72 hour; conditions: NF54, Erythrocyte

SMILES	IC50 at 72 h [1]	IC50 [2]	IC50 [3]	IC50 [4]	IC50 [5]
CCOc1ccc(Nc2c3ccccc3nc3ccccc23)cc1	> 10 µM	1.86 µM	1.55 µM	5.75 µM	3.47 µM
Cc1ccc(-c2c[n+](-c3ccc(OC(F)F)cc3)c3n2CCCCC3)cc1	> 10 µM	1.2 µM	0.891 µM	> 10 µM	1.66 µM
CCc1ccc(/C=C/c2c[nH]c3ccccc23)[n+](CC)c1	> 10 µM	0.372 µM	0.263 µM	> 10 µM	0.513 µM
c1ccc(CCNc2nc(-c3ccccn3)cs2)cc1	> 10 µM	3.63 µM	2.45 µM	> 10 µM	3.24 µM
Cc1cc(C)c2nc(C)cc(Nc3ccc(O)cc3)c2c1	> 10 µM	1.26 µM	1.23 µM	7.41 µM	1.66 µM
CCOc1cc(C(c2c(C)n(C)n(-c3ccccc3)c2=O)c2c(C)n(C)n(-c3ccccc3)c2=O)ccc1OCc1ccccc1	> 10 µM	4.68 µM	1.86 µM	3.09 µM	6.92 µM
c1ccc(C2=NN(c3ccc(-c4cc(-c5ccccc5)[n+](-c5ccccc5)c(-c5ccccc5)c4)cc3)[C@H](c3ccccc3)C2)cc1	4.07 µM	0.955 µM	0.631 µM	2.19 µM	1.32 µM
O=C(N[C@@H]1CN(Cc2ccccn2)CCC[C@H]1O)c1ccc(OCc2ccccc2)cc1	> 10 µM	2.29 µM	2.45 µM	> 10 µM	4.07 µM
C[C@H]1[C@@H]2[C@@H](O)C([C@H](C)C(=O)NC3CCCCC3)CC[C@@]2(C)CC[C@@H]1NC(=O)CC(C)(C)C (stereo not given in full)	> 10 µM	2.88 µM	> 10 µM	> 10 µM	3.47 µM
COc1ccc2c(/C=C/c3cc[n+](C)cc3)cn(Cc3ccccc3)c2c1	> 10 µM	1.26 µM	1.17 µM	> 10 µM	1.58 µM
CC(C)C(=O)Nc1ccc(-c2cc(-c3ccc(NC(=O)C(C)C)cc3)nc(-c3ccncc3)n2)cc1	> 10 µM	> 10 µM	4.68 µM	> 10 µM	8.71 µM
CCC(C)NCC(O)Cn1c(-c2ccccc2)c(-c2ccccc2)c2cc(C)ccc21 (stereo not given)	> 10 µM	2.75 µM	1.02 µM	1.51 µM	2.57 µM
COc1cc(CNCCCN2CCOCC2)ccc1OCc1ccc(Cl)cc1	> 10 µM	2.95 µM	2.88 µM	6.03 µM	4.47 µM
O=C(c1cccc(C(=O)N2CCN(C(c3ccccc3)c3ccccc3)CC2)c1)N1CCN(C(c2ccccc2)c2ccccc2)CC1	> 10 µM	> 10 µM	> 10 µM	> 10 µM	> 10 µM
Cc1n(CC(=O)c2ccccc2)c2ccccc2[n+]1CC(=O)c1ccccc1	> 10 µM	1.62 µM	1.05 µM	> 10 µM	1.55 µM
c1cc(-c2nc3cc4ccccc4cc3[nH]2)nc(-c2nc3cc4ccccc4cc3[nH]2)c1	8.32 µM	1.95 µM	0.513 µM	0.977 µM	1.15 µM
COCCCn1c(NS(=O)(=O)c2ccccc2)c(S(=O)(=O)c2ccc(C)cc2)c2nc3ccccc3nc21	> 10 µM	8.91 µM	4.68 µM	6.17 µM	> 10 µM
COc1ccc(C2=CN(CC(=O)c3ccc(Cl)cc3)C3=CCCCCN23)cc1	> 10 µM	3.16 µM	2.95 µM	> 10 µM	2.95 µM
CCN(CC)CCn1c2ccccc2n2cc(-c3ccc(Br)cc3)nc12	> 10 µM	6.46 µM	4.47 µM	7.08 µM	9.77 µM
Cc1ccc(S(=O)(=O)Nc2c(S(=O)(=O)c3ccccc3)c3nc4ccccc4nc3n2CCc2ccccc2)cc1	> 10 µM	5.13 µM	2.14 µM	3.63 µM	6.76 µM
Cc1ccc(S(=O)(=O)Nc2c(S(=O)(=O)c3ccc(C)cc3)c3nc4ccccc4nc3n2C[C@H]2CCCO2)cc1	> 10 µM	> 10 µM	2.57 µM	1.35 µM	> 10 µM
CCCCCn1c(NCc2cc(Cl)ccc2O)nc2ccccc21	> 10 µM	7.41 µM	3.63 µM	6.76 µM	8.71 µM
CC[n+]1c(/C=C/N(C)c2ccccc2)oc2ccc(-c3ccccc3)cc21	> 10 µM	0.417 µM	0.562 µM	5.37 µM	0.891 µM
CCC1=Nc2ccccc2N=C(NC(=O)C(C)C)[C@H]1c1ccc(F)cc1	> 10 µM	8.32 µM	2.45 µM	3.8 µM	7.24 µM

SMILES	IC50 at 72 h [1]	IC50 [2]	IC50 [3]	IC50 [4]	IC50 [5]
CCC(CC)c1cc([C@H]2CN3CC[C@H]2C[C@@H]3CNS(=O)(=O)Cc2ccccc2)nc(-c2ccncc2)n1	> 10 µM	3.89 µM	2.04 µM	3.89 µM	4.37 µM
CCOC(=O)c1cn(CC)c2cc(NC3CCCCC3)c(F)cc2c1=O	> 10 µM	0.891 µM	0.724 µM	> 10 µM	2.29 µM
Cc1ccc[n+](Cc2ccc3ccccc3n2)c1	> 10 µM	2.88 µM	3.02 µM	> 10 µM	3.24 µM
COc1ccc(C(=O)CN2C=CCC=C2c2nc(-c3ccc(Cl)cc3)cs2)cc1	> 10 µM	3.02 µM	2.14 µM	> 10 µM	5.13 µM
c1ccc(CC2=NCCc3ccccc32)cc1	> 10 µM	1.41 µM	1.29 µM	> 10 µM	3.02 µM
C[N+]1(CCCC(=O)c2ccc3c(c2)OCCO3)CCC(c2ccccc2)C1 (stereo not given)	> 10 µM	2.24 µM	2.57 µM	> 10 µM	3.8 µM
Cc1ccc(S(=O)(=O)Nc2c(S(=O)(=O)c3ccc(C)cc3)c3nc4ccccc4nc3n2CCC(C)C)cc1	> 10 µM	4.27 µM	2.51 µM	4.79 µM	8.32 µM
Cc1ccc(N2C(=O)C[C@]3(CC3(c3ccccc3)c3ccccc3)C2=O)cc1	> 10 µM	> 10 µM	1.51 µM	0.525 µM	> 10 µM
CN(C(=O)C(C)(C)Nc1ncc(C(F)(F)F)cc1Cl)c1ccc(Cl)cc1	> 10 µM	> 10 µM	3.55 µM	1.55 µM	> 10 µM
O=C(NC1=NN2C(=NC(c3ccc(Cl)cc3)=C[C@H]2c2ccc(F)cc2)N1)c1ccc(Cl)cc1	> 10 µM	3.16 µM	2.29 µM	4.17 µM	2.95 µM
C=C1C(C)C2C(Cc3c[nH]c4ccccc34)NC(=O)C23C(=O)CC(O)C(O)CC(C)C/C=C/C3C1O (stereo not given)	> 10 µM	3.39 µM	1.82 µM	> 10 µM	3.16 µM
COc1ccc(-c2cc(C(F)(F)F)nc(-n3nc(-c4cccc(OC)c4)c(Cl)c3-c3cccc(OC)c3)n2)cc1	> 10 µM	4.07 µM	1.51 µM	1.74 µM	> 10 µM
COc1cccc(-c2nc(C)c(C(=O)Nc3nc(C(C)C)n[nH]3)s2)c1	> 10 µM	> 10 µM	1.48 µM	0.575 µM	> 10 µM
CCc1c2c(=O)n(-c3nc4ccccc4s3)[nH]c2cc(=O)n1CCCN1CCOCC1	> 10 µM	> 10 µM	4.57 µM	6.61 µM	9.55 µM
Cc1ccc(S(=O)(=O)Nc2cc3nc4ccccc4nc3n2CCc2ccccc2)cc1	> 10 µM	> 10 µM	2.34 µM	3.24 µM	10 µM
O=C(CN1C=CCC=C1c1nc(-c2ccc(Br)cc2)cs1)c1ccccc1	> 10 µM	3.55 µM	2.63 µM	5.89 µM	3.47 µM
COCCCn1c(NS(=O)(=O)c2ccc3ccccc3c2)c(S(=O)(=O)c2ccc(C)cc2)c2nc3ccccc3nc21	> 10 µM	8.51 µM	2.34 µM	1.55 µM	6.76 µM
CC(C)Nc1nc2nonc2n2cnnc12	> 10 µM	3.55 µM	1.95 µM	4.47 µM	4.37 µM
Cc1ccc(S(=O)(=O)c2c(NS(=O)(=O)c3ccc(F)cc3)n(CCc3ccccc3)c3nc4ccccc4nc23)cc1	> 10 µM	4.07 µM	1.7 µM	2.75 µM	4.37 µM
CNCCc1c(-c2ccccc2)[nH]n(-c2ccccc2)c1=O	> 10 µM	3.16 µM	1.7 µM	2.75 µM	2.82 µM
Cc1ccc(S(=O)(=O)c2c(NS(=O)(=O)c3ccccc3)n(CCc3ccccc3)c3nc4ccccc4nc23)cc1	> 10 µM	3.02 µM	1.45 µM	1.91 µM	3.8 µM
CC(=O)Nc1ccc(-c2cn3c4ccccc4ccc3[n+]2C)cc1	> 10 µM	1.41 µM	0.49 µM	> 10 µM	0.263 µM
COc1ccc(-c2c(C(F)(F)F)n[nH]c2-c2ccc(OCc3ccccc3F)cc2O)cc1	> 10 µM	3.02 µM	1.66 µM	2.88 µM	6.31 µM
O=C(COc1ccccc1)Nc1ccc2c(c1)C(O)=Nc1cccnc1O2	> 10 µM	2.82 µM	1.74 µM	> 10 µM	2.45 µM
